Reference: US20190105367A1, “ANTIMICROBIAL 4-OXOQUINOLIZINES” (Emergent Product Development Gaithersburg Inc., priority 2011, published 2019)
Values after ≈ are worked out from the molar mass of the structure shown. Where two headings read alike, the source gives them in different places.

Legend:
B. thailandensis = assay type: cell-based, Burkholderia thailandensis
K. pneumoniae ATCC 33495 = assay: MIC on K. pneumoniae (Example 5); assay type: cell-based, Klebsiella pneumoniae; details: sensitive strain
Experimental: (§1) MIC Values for all compounds were measured against a selection of bacterial strains. The MICs of 4-oxoquinolizines against a selection of Gram-negative and Gram-positive bacterial strains are shown in Table 13 in comparison with known antibiotics.

A. baumannii ATCC 19606 = assay: MIC, selected panel of bacterial strains (Example 5); assay type: cell-based, Acinetobacter baumannii
[1] = test system: K. pneumoniae BAA-2146 (NDM-1, FQ-R); assay: MIC on K. pneumoniae (Example 5); assay type: cell-based, Klebsiella pneumoniae; details: quinolone-resistant strain
Experimental: as §1

[2] = test system: S. aureus BAA-1556 (USA300-Type) (MRSA, FQ-R); assay: MIC, selected panel of bacterial strains (Example 5); assay type: cell-based, Staphylococcus aureus; details: Staphylococcus aureus, read-out: MICs against Gram positive bacteria S. aureus BAA-1556 (USA300-Type) (MRSA, FQ-R)
[3] = test system: S. aureus ATCC 43300 (MRSA, FQ-S); assay: as above; assay type: cell-based, Staphylococcus aureus; details: Staphylococcus aureus, read-out: MICs against Gram positive bacteria S. aureus ATCC 43300 (MRSA, FQ-S)
S. aureus ATCC 25923 = assay: as above; assay type: cell-based, Staphylococcus aureus
E. coli ATCC 25922 = assay: as above; assay type: cell-based, Escherichia coli; details: Escherichia coli, ATCC25922, read-out: MICs against Gram negative bacteria E. coli ATCC 25922
B. thailandensis E264 = assay: microbe, parasite or virus in culture; assay type: cell-based, Burkholderia thailandensis; details: Burkholderia thailandensis, E264, read-out: MICs against Gram negative bacteria B. thailandensis E264
[4] = Acinetobacter baumannii, ATCC19606, read-out: MICs against Gram negative bacteria A. baumannii ATCC 19606
[5] = Staphylococcus aureus, ATCC25923, read-out: MICs against Gram positive bacteria S. aureus ATCC 25923

## 8-(4-amino-3-ethyl-5-methyl- phenyl)-1-cyclopropyl-9- methyl-4-oxo-quinolizine-3- carboxylic acid [Compound 16]
B. thailandensis
  MIC90 B. thailandensis: <0.048 µg/mL

## Cc1c(-c2cc(F)c(N)cc2F)ccn2c(=O)c(C(=O)[O-])cc(C3CC3)c12.[K+] [Compound 2K salt, potassium 8-(4-amino-2,5-difluoro-phenyl)-1-cyclopropyl-9-methyl-4-oxo-4H-quinolizine-3-carboxylate]
K. pneumoniae ATCC 33495; Klebsiella pneumoniae, ATCC33495, read-out: MICs K. pneumoniae ATCC 33495
  MIC: 0.25 µg/mL

## Cc1c(-c2ccc(CN)s2)ccn2c(=O)c(C(=O)[O-])cc(C3CC3)c12.[K+] [Compound 13K salt, potassium 8-(5-(aminomethyl)thiophen-2-yl)-1-cyclopropyl-9-methyl-4-oxo-4H-quinolizine-3-carboxylate]
A. baumannii ATCC 19606; [4]
  MIC: 0.125 µg/mL

## Cc1c(-c2ccc(N)nc2)ccn2c(=O)c(C(=O)[O-])cc(C3CC3)c12.[K+] [Compound 33K salt, potassium 8-(6-amino-pyridin-3-yl)-1-cyclopropyl-9-methyl-4-oxo-4H-quinolizine-3-carboxylate]
K. pneumoniae ATCC 33495
  MICs K. pneumoniae ATCC 33495: 0.064 µg/mL
[1]
  MICs K. pneumoniae BAA-2146 (NDM-1, FQ-R): >8 µg/mL

## Cc1c(-c2cccc(O)c2)ccn2c(=O)c(C(=O)[O-])cc(C3CC3)c12.[K+] [Compound 56K salt, potassium 1-cyclopropyl-8-(3-hydroxyphenyl)-9-methyl-4-oxo-4H-quinolizine-3-carboxylate]
[2]
  MIC: 0.125 µg/mL
A. baumannii ATCC 19606; [4]
  MIC: 0.125 µg/mL

## Cc1c(-c2ccc(O)cc2)c(F)cn2c(=O)c(C(=O)[O-])cc(C3CC3)c12.[K+] [Compound 61K salt, potassium 8-(4-hydroxyphenyl)-1-cyclopropyl-7-fluoro-9-methyl-4-oxo-4H-quinolizine-3-carboxylate]
[3]
  MIC: < 0.004 µg/mL
S. aureus ATCC 25923; [5]
  MIC: 50 µg/mL
A. baumannii ATCC 19606; [4]
  MIC: 0.125 µg/mL

## CC(=O)NCc1ccc(-c2ccn3c(=O)c(C(=O)[O-])cc(C4CC4)c3c2C)cc1.[K+] [Compound 64K salt, potassium 8-(4-(Acetamidomethyl)phenyl)-1-cyclopropyl-9-methyl-4-oxo-4H-quinolizine-3-carboxylate]
E. coli ATCC 25922
  MIC: 0.125 µg/mL

## COc1cc(-c2ccn3c(=O)c(C(=O)[O-])cc(C4CC4)c3c2C)ccc1O.[K+] [Compound 66K salt, potassium 8-(4-hydroxy-3-methoxyphenyl)-1-cyclopropyl-9-methyl-4-oxo-4H-quinolizine-3-carboxylate]
E. coli ATCC 25922
  MIC: 0.125 µg/mL

## Cc1c(-c2ccc3c(c2)C(=O)NC3)ccn2c(=O)c(C(=O)[O-])cc(C3CC3)c12.[K+] [Compound 68K salt, potassium 8-(3-oxoisoindolin-5-yl)-1-cyclopropyl-9-methyl-4-oxo-4H-quinolizine-3-carboxylate]
[3]
  MIC: 50 µg/mL
S. aureus ATCC 25923; [5]
  MIC: 50 µg/mL

## CNc1ccc(-c2ccn3c(=O)c(C(=O)[O-])cc(C4CC4)c3c2C)cc1C.[K+] [Compound 69K salt, potassium 8-(3-methyl-4-(methylamino)phenyl)-1-cyclopropyl-9-methyl-4-oxo-4H-quinolizine-3-carboxylate]
[3]
  MIC: 50 µg/mL
S. aureus ATCC 25923; [5]
  MIC: 50 µg/mL
E. coli ATCC 25922
  MIC: 0.125 µg/mL

## Cc1c(-c2ccc(O)c(F)c2)ccn2c(=O)c(C(=O)[O-])cc(C3CC3)c12.[K+] [Compound 70K salt, potassium 8-(3-fluoro-4-hydroxyphenyl)-1-cyclopropyl-9-methyl-4-oxo-4H-quinolizine-3-carboxylate]
[3]
  MIC: 50 µg/mL
S. aureus ATCC 25923; [5]
  MIC: 50 µg/mL
A. baumannii ATCC 19606; [4]
  MIC: 0.125 µg/mL

## Cc1c(-c2ccc3[nH]nc(C4CC4)c3c2)ccn2c(=O)c(C(=O)[O-])cc(C3CC3)c12.[K+] [Compound 71K salt, potassium 8-(3-cyclopropyl-1H-indazol-5-yl)-1-cyclopropyl-9-methyl-4-oxo-4H-quinolizine-3-carboxylate]
[3]
  MIC: 50 µg/mL
S. aureus ATCC 25923; [5]
  MIC: 50 µg/mL
E. coli ATCC 25922
  MIC: 0.125 µg/mL
[2]
  MIC: 0.125 µg/mL

## Cc1c(-c2ccc3sc(N)nc3c2)ccn2c(=O)c(C(=O)[O-])cc(C3CC3)c12.[K+] [Compound 73K salt, potassium 8-(2-aminobenzo[d]thiazol-5-yl)-1-cyclopropyl-9-methyl-4-oxo-4H-quinolizine-3-carboxylate]
[3]
  MIC: 50 µg/mL
S. aureus ATCC 25923; [5]
  MIC: 50 µg/mL
A. baumannii ATCC 19606; [4]
  MIC: 0.125 µg/mL

## Cc1c(-c2ccc3[nH]ncc3c2)c(F)cn2c(=O)c(C(=O)[O-])cc(C3CC3)c12.[K+] [Compound 75K salt, potassium 8-(1H-indazol-5-yl)-1-cyclopropyl-7-fluoro-9-methyl-4-oxo-4H-quinolizine-3-carboxylate]
[3]
  MIC: 50 µg/mL
S. aureus ATCC 25923; [5]
  MIC: 50 µg/mL

## Cc1c(-c2ccc3c(c2)CCN3)ccn2c(=O)c(C(=O)[O-])cc(C3CC3)c12.[K+] [Compound 77K salt, potassium 8-(indolin-5-yl)-1-cyclopropyl-9-methyl-4-oxo-4H-quinolizine-3-carboxylate]
E. coli ATCC 25922
  MIC: 0.125 µg/mL

## CNc1ccc(-c2ccn3c(=O)c(C(=O)[O-])cc(C4CC4)c3c2C)cn1.[K+] [Compound 78K salt, potassium 8-(6-(methylamino)pyridin-3-yl)-1-cyclopropyl-9-methyl-4-oxo-4H-quinolizine-3-carboxylate]
[2]
  MIC: 0.125 µg/mL
A. baumannii ATCC 19606; [4]
  MIC: 0.125 µg/mL

## Cc1cc(-c2ccn3c(=O)c(C(=O)[O-])cc(C4CC4)c3c2C)cnc1N.[K+] [Compound 79K salt, potassium 8-(6-amino-5-methylpyridin-3-yl)-1-cyclopropyl-9-methyl-4-oxo-4H-quinolizine-3-carboxylate]
[3]
  MIC: 50 µg/mL
S. aureus ATCC 25923; [5]
  MIC: 50 µg/mL
[2]
  MIC: 0.125 µg/mL

## Cc1n[nH]c2ccc(-c3ccn4c(=O)c(C(=O)[O-])cc(C5CC5)c4c3C)cc12.[K+] [Compound 80K salt, potassium 8-(3-methyl-1H-indazol-5-yl)-1-cyclopropyl-9-methyl-4-oxo-4H-quinolizine-3-carboxylate]
[3]
  MIC: 50 µg/mL
S. aureus ATCC 25923; [5]
  MIC: 50 µg/mL
[2]
  MIC: 0.125 µg/mL

## Cc1c(-c2ccc3c(cnn3C)c2)ccn2c(=O)c(C(=O)[O-])cc(C3CC3)c12.[K+] [Compound 81K salt, potassium 8-(1-methyl-1H-indazol-5-yl)-1-cyclopropyl-9-methyl-4-oxo-4H-quinolizine-3-carboxylate]
[3]
  MIC: 50 µg/mL
S. aureus ATCC 25923; [5]
  MIC: 50 µg/mL
A. baumannii ATCC 19606; [4]
  MIC: 0.125 µg/mL

## Cc1c(-c2ccc3cn[nH]c3c2)ccn2c(=O)c(C(=O)[O-])cc(C3CC3)c12.[K+] [Compound 83K salt, potassium 8-(1H-indazol-6-yl)-1-cyclopropyl-9-methyl-4-oxo-4H-quinolizine-3-carboxylate]
[3]
  MIC: 50 µg/mL
S. aureus ATCC 25923; [5]
  MIC: 50 µg/mL
B. thailandensis E264
  MIC: 0.125 µg/mL

## Cc1c(-c2ccc(N3CCNCC3)nc2)ccn2c(=O)c(C(=O)[O-])cc(C3CC3)c12.[K+] [Compound 84K salt, potassium 8-(6-(piperazin-1-yl)pyridin-3-yl)-1-cyclopropyl-9-methyl-4-oxo-4H-quinolizine-3-carboxylate]
[3]
  MIC: 0.125 µg/mL
S. aureus ATCC 25923; [5]
  MIC: 0.125 µg/mL

## Cc1c(-c2cnc3[nH]ccc3c2)ccn2c(=O)c(C(=O)[O-])cc(C3CC3)c12.[K+] [Compound 85K salt, potassium 8-(1H-pyrrolo[2,3-b]pyridin-5-yl)-1-cyclopropyl-9-methyl-4-oxo-4H-quinolizine-3-carboxylate]
[3]
  MIC: 50 µg/mL
S. aureus ATCC 25923; [5]
  MIC: 50 µg/mL

## Cc1cn2c(=O)c(C(=O)[O-])cc(C3CC3)c2c(C)c1-c1ccc(N)nc1.[K+] [Compound 87K salt, potassium 8-(6-amino-pyridin-3-yl)-1-cyclopropyl-7,9-dimethyl-4-oxo-4H-quinolizine-3-carboxylate]
E. coli ATCC 25922
  MIC: 0.125 µg/mL

## Cc1cn2c(=O)c(C(=O)[O-])cc(C3CC3)c2c(C)c1-c1ccc2[nH]ncc2c1.[K+] [Compound 88K salt, potassium 8-(1H-indazol-5-yl)-1-cyclopropyl-7,9-dimethyl-4-oxo-4H-quinolizine-3-carboxylate]
E. coli ATCC 25922
  MIC: 0.125 µg/mL

## COc1c(-c2ccc(N)nc2)ccn2c(=O)c(C(=O)[O-])cc(C3CC3)c12.[K+] [Compound 89K salt, potassium 8-(6-amino-pyridin-3-yl)-1-cyclopropyl-9-methoxy-4-oxo-4H-quinolizine-3-carboxylate]
E. coli ATCC 25922
  MIC: 0.125 µg/mL

## COc1c(-c2ccc3[nH]ncc3c2)ccn2c(=O)c(C(=O)[O-])cc(C3CC3)c12.[K+] [Compound 90K salt, potassium 8-(1H-indazol-5-yl)-1-cyclopropyl-9-methoxy-4-oxo-4H-quinolizine-3-carboxylate]
E. coli ATCC 25922
  MIC: 0.125 µg/mL

## C[C@H]1c2cccc(O)c2C(=O)C2=C(O)[C@]3(O)C(=O)C(C(N)=O)=C(O)[C@@H](N(C)C)[C@@H]3[C@@H](O)[C@@H]21 [Doxycycline, reference compound]
S. aureus ATCC 25923; Staphylococcus aureus, ATCC25923; read-out: MICs against Gram positive bacteria S. aureus ATCC 25923
  MIC: 0.125 µg/mL (≈ 0.281 µM)
A. baumannii ATCC 19606; Acinetobacter baumannii, ATCC19606; read-out: MICs against Gram negative bacteria A. baumannii ATCC 19606
  MIC: 0.125 µg/mL (≈ 0.281 µM)
